Like-named read-outs stand apart in the source and are kept apart here. Blank lines part the entries; values can stand above or below the compound they belong to.
Key:
[1] = test system: peripheral blood mononuclear cells; assay: Flow cytometric analysis (FACS) of PBMCs and monocyte subsets; details: for CD11b+Ly6Chigh / CD11b+Ly6Clow / Number of live/single PBMCs per mL blood: after 12 weeks; for change of number of circulating PBMCs vs control: at 12 weeks
[2] = Pharmacokinetic analysis and plasma drug concentrations (LC-MS/MS); format: in vivo, APOE*3Leiden.CETP mice; details: APOE*3Leiden.CETP, mouse, plasma; for AUC(0-t): read-out: AUC0–24
Procedure: Animal experiments were approved by the Institutional Animal Care and Use Committee of The Netherlands Organization for Applied Research under registration number 3557.
PK analysis and plasma drug concentrations
EDTA plasma samples collected during the 24-hour PK study and at week 16 of the (cardio)vascular risk factor-atherosclerosis study were subsequently stored at -80°C until analysis. Thawed plasma samples (50μL) were de-proteinized with two volumes of acetonitrile containing an appropriate src-inhibitor chemotype as internal standard for each analyte.
Following deproteinization, a 5μL portion of clear supernatant was then subjected to solvent gradient separation in an Agilent 1100 series HPLC system interfaced to a Micromass triple-quadrupole mass spectrometer, which was operated in the positive ion electrospray MRM mode to obtain daughter ions for quantitation: Ion transitions used for quantitation were as follows: […]
curves ranging from 1 nM to 6 uM were fitted with a quadratic regression weighted by reciprocal concentration (1/x). LLOQ for the purposes of this assay was between 1 and 2 nM for all compounds analyzed. QC samples at three levels in the range of the standard curve were used to accept individual analytical sets, and all results were calculated as the mean of triplicate determinations ± standard error. Tmax, Cmax and AUCs were calculated using the software Berkeley Madonna (version 8.3.18). […]

SAA = assay: Plasma SAA ELISA; format: in vivo, APOE*3Leiden.CETP mice; details: for SAA: after 16 weeks of treatment
Source text: (§1) Pouwer et al Supplementary material […]
The inflammatory markers SAA, E-selectin and MCP-
according to the manufacturer’s instruction. […]

APOE*3Leiden.CETP mice [3] = assay: Blood pressure and heart rate (tail cuff); format: in vivo; details: after 2 and 15 weeks of treatment, all dose groups, vs control
Source text: as §1

APOE*3Leiden.CETP mice [4] = assay: Plasma cholesterol, triglycerides and HDL-C in the atherosclerosis study; format: in vivo; details: for reduction of average plasma cholesterol compared to control: p < 0.001; for change of HDL-C vs control: at 16 weeks of treatment
Procedure: Pouwer et al Supplementary material plasma lipids and a minimal effect of treatment of 30%, resulting in 15 animals per group.
Animal experiments were approved by the Institutional Animal Care and Use Committee of The Netherlands Organization for Applied Research under registration number 3557. […]
Biochemical analyses and blood pressure
EDTA plasma samples were collected throughout the study. Plasma cholesterol and triglycerides were determined every 4 weeks using enzymatic kits (Roche/Hitachi) according […]
HDL-C was measured after precipitation as described previously20. The distribution of […]
protein liquid chromatography (FPLC)9. The inflammatory markers SAA, E-selectin and MCP- […]
according to the manufacturer’s instruction. Plasma ALT and AST were determined using a […]
group at 2 and 15 weeks18. […]

APOE*3Leiden.CETP mice [5] = assay: Plaque composition and lesion stability index in severe (type IV-V) lesions; format: in vivo; details: 16 weeks
Procedure: The macrophage and necrosis content were quantified as factors that decrease plaque stability, and smooth muscle cell area in the cap of the lesions and collagen as factors that improve plaque stability ([17, 35, 36]) (Figure 6A). […]
µm thick with intervals of 50 µm) were taken and mounted on AAS-coated slides. These sections were stained with hematoxylin-phloxine-saffron (HPS) for histological analysis. For each mouse, atherosclerosis was measured in 4 subsequent cross sections. Each section consisted of 3 segments. The average total lesion area per cross section was then calculated20
22. For determination of lesion severity the lesions were classified into five categories according to the American Heart Association classification 23: 0) no lesion I) early fatty streak, II) regular fatty streak, III) mild plaque, IV) moderate plaque, and V) severe plaque. The percentage of each lesion type was calculated, where type I-III lesions were classified as mild lesions and type IV-V lesions were classified as severe lesions 20 22. In the aortic root, lesion composition was determined for the severe lesions (type IV -V) as a percentage of lesion area after immunostaining with anti-human alpha-actin (1:400; PROGEN Biotechnik GmbH, Germany) for smooth muscle cells (SMC), and anti -mouse Mac-3 (1:50; BD Pharmingen, the Netherlands) for macrophages followed by Sirius Red staining. After Sirius Red staining for collagen, color intensity was determined in ImageJ and the used threshold was confirmed by evaluation of the sections under polarized light 24. Necrotic area and cholesterol clefts were measured after HPS staining13 20 22. Lesion stability index was calculated as described pre viously13 20. […]

[6] = po, repeated dose, BID, 150 mg/kg, after 16 weeks
[7] = po, repeated dose, QD, 10 mg/kg, after 16 weeks
[8] = po, repeated dose, QD, 30 mg/kg, after 16 weeks
[9] = po, repeated dose, QD, 3 mg/kg, after 16 weeks

CD11b+Ly6Chigh ([1]; 150 mg/kg BID): 11.0 ± 3.6 % of monocyte population | CD11b+Ly6Clow ([1]; 150 mg/kg BID): 69.1 ± 5.9 % of monocyte population | Number of live/single PBMCs per mL blood ([1]; 150 mg/kg BID): 3.9 ± 1.3 *106 /mL | change of number of circulating PBMCs vs control ([1]; 150 mg/kg BID, p = 0.006): −42% | Cmax [2, 6]: 11100 ng/mL | Tmax [2, 6]: 2.47 h | AUC(0-t) [2, 6]: 78100 ng·h/mL | Cmax ([2]; single oral gavage, 100 mg/kg): 5290 ng/mL | Tmax ([2]; single oral gavage, 100 mg/kg): 2.28 h | AUC(0-t) ([2]; single oral gavage, 100 mg/kg): 32800 ng·h/mL | SAA (SAA; 150 mg/kg BID): 9.6 ± 0.5 µg/mL
Structure (SMILES): Cc1ccc(NC(=O)c2ccc(CN3CCN(C)CC3)cc2)cc1Nc1nccc(-c2cccnc2)n1 [Imatinib, imatinib]
effect on plasma SAA (SAA; 150 mg/kg BID, 16 weeks): None of the inflammatory markers were significantly altered | effect on heart rate (APOE*3Leiden.CETP mice [3]): not affected | effect on systolic blood pressure (SBP) (APOE*3Leiden.CETP mice [3]): not affected | reduction of average plasma cholesterol compared to control (APOE*3Leiden.CETP mice [4]; 150 mg/kg BID, 16 week study): 69% | reduction of average plasma triglyceride levels compared to control (APOE*3Leiden.CETP mice [4]; 150 mg/kg BID, 16 week study, p = 0.019): 36% | increase of collagen content of severe lesions vs control (APOE*3Leiden.CETP mice [5]; 150 mg/kg BID, p = 0.004): 47% | change of αSMC content vs control (APOE*3Leiden.CETP mice [5]; 150 mg/kg BID, p = 0.050 (tended to increase)): +38% | collagen content (percentage of total plaque area) (APOE*3Leiden.CETP mice [5]; 150 mg/kg BID, type IV-V lesions): 62 ± 17%

CD11b+Ly6Chigh ([1]; 10 mg/kg): 27.5 ± 4.3 % of monocyte population | CD11b+Ly6Clow ([1]; 10 mg/kg): 61.4 ± 4.8 % of monocyte population | Number of live/single PBMCs per mL blood ([1]; 10 mg/kg): 6.5 ± 2.4 *106 /mL | CD11b+Ly6Chigh ([1]; 30 mg/kg): 11.4 ± 3.8 % of monocyte population | CD11b+Ly6Clow ([1]; 30 mg/kg): 73.2 ± 4.9 % of monocyte population | Number of live/single PBMCs per mL blood ([1]; 30 mg/kg): 6.4 ± 1.4 *106 /mL | Cmax [2, 7]: 2300 ng/mL | Tmax [2, 7]: 3.17 h | AUC(0-t) [2, 7]: 24600 ng·h/mL | Cmax [2, 8]: 6890 ng/mL | Tmax [2, 8]: 3.17 h | AUC(0-t) [2, 8]: 73800 ng·h/mL | Cmax ([2]; single oral gavage, 50 mg/kg): 11000 ng/mL | Tmax ([2]; single oral gavage, 50 mg/kg): 3.26 h | AUC(0-t) ([2]; single oral gavage, 50 mg/kg): 117000 ng·h/mL | SAA (SAA; 10 mg/kg QD): 10.6 ± 1.0 µg/mL | SAA (SAA; 30 mg/kg QD): 10.6 ± 1.1 µg/mL
Structure (SMILES): Cc1cn(-c2cc(NC(=O)c3ccc(C)c(Nc4nccc(-c5cccnc5)n4)c3)cc(C(F)(F)F)c2)cn1 [Nilotinib, nilotinib]
effect on heart rate (APOE*3Leiden.CETP mice [3]): not affected | effect on systolic blood pressure (SBP) (APOE*3Leiden.CETP mice [3]): not affected | effect on plasma lipid levels (APOE*3Leiden.CETP mice [4]; 10 and 30 mg/kg QD, 16 week study, vs control): no significant effect | change of collagen content vs control (APOE*3Leiden.CETP mice [5]; 10 mg/kg, p = 0.003): −32% | change of lesion stability index vs control (APOE*3Leiden.CETP mice [5]; 10 mg/kg, p = 0.003): −43%

Structure (SMILES): Cc1ccc(C(=O)Nc2ccc(CN3CCN(C)CC3)c(C(F)(F)F)c2)cc1C#Cc1cnc2cccnn12 [Ponatinib, ponatinib]
CD11b+Ly6Clow ([1]; 3 mg/kg): 58.4 ± 2.5 % of monocyte population | Number of live/single PBMCs per mL blood ([1]; 3 mg/kg): 7.1 ± 1.7 *106 /mL | change of number of circulating PBMCs vs control ([1]; 10 mg/kg QD (high-dose), p = 0.003): −44% | CD11b+Ly6Clow ([1]; 10 mg/kg): 69.1 ± 6.4 % of monocyte population | Number of live/single PBMCs per mL blood ([1]; 10 mg/kg): 3.8 ± 0.8 *106 /mL | Cmax [2, 9]: 140 ng/mL | Tmax [2, 9]: 6.72 h | AUC(0-t) [2, 9]: 2430 ng·h/mL | Cmax [2, 7]: 460 ng/mL | Tmax [2, 7]: 6.73 h | AUC(0-t) [2, 7]: 8110 ng·h/mL | Cmax ([2]; single oral gavage, 5 mg/kg): 190 ng/mL | Tmax ([2]; single oral gavage, 5 mg/kg): 8 h | AUC(0-t) ([2]; single oral gavage, 5 mg/kg): 3240 ng·h/mL | SAA (SAA; 3 mg/kg QD): 10.4 ± 1.9 µg/mL | SAA (SAA; 10 mg/kg QD): 15.2 ± 21.1 µg/mL | effect on heart rate (APOE*3Leiden.CETP mice [3]): not affected | effect on systolic blood pressure (SBP) (APOE*3Leiden.CETP mice [3]): not affected | change of HDL-C vs control (APOE*3Leiden.CETP mice [4]; 3 mg/kg QD (low dose), p = 0.003): −30% | reduction of average plasma cholesterol compared to control (APOE*3Leiden.CETP mice [4]; 3 mg/kg QD, 16 week study): 37% | change of HDL-C vs control (APOE*3Leiden.CETP mice [4]; 10 mg/kg QD (high dose), p = 0.016): −25% | reduction of average plasma cholesterol compared to control (APOE*3Leiden.CETP mice [4]; 10 mg/kg QD, 16 week study): 44% | effect on plaque stability (APOE*3Leiden.CETP mice [5]; 3 mg/kg): without affecting plaque stability | change of necrotic core content vs control (APOE*3Leiden.CETP mice [5]; 3 mg/kg, p = 0.001): −58%

Reference: PMC6005845 (Frontiers in Cardiovascular Medicine, 2018)
